Patent US20080108645A1, “Dihydrotetrabenazines And Pharmaceutical Compositions Containing Them” (CAMBRIDGE LABORATORIES, (IRELAND), LTD., priority 2004, published 2008)
Entries after “also recorded” stand apart in the source; their conditions may differ.

Legend:
[1] = biological target: VMAT2 (Homo sapiens, UniProt Q05940); details: Erickson et al. (1996); cited from earlier work
[2] = tested on: Male Sprague-Dawley rats; assay: Spontaneous locomotor activity in rats (sedative properties); format: in vivo, rat
Experimental: A study was carried out in rats to determine whether the dihydrotetrabenazine isomers of the invention have sedative properties. The effects of the isomers on spontaneous locomotor activity in rats were compared with the effects produced by tetrabenazine and haloperidol using the methods set out below.
Male Sprague-Dawley rats, (Charles River Laboratories, Saint-Germain/L'Arbresle, France), weighing 200-250 g at the beginning of the study, were used for the studies. The rats were housed, 2 or 3 per cage, in Makrolon type III cages, in a room set up with the following environmental conditions: temperature: 20±2° C., humidity: minimum 45%, air changes: >12 per hour, light/dark cycle of 12 h/12 h [on at 7:00 a.m.]. The rats were allowed to acclimatize to their conditions for at least five days before commencement of the study. The rats received food (Dietex, Vigny, France, ref. 811002) and water (tap water in water bottle) ad libitum.
Solutions of each test compound in corn oil were freshly prepared on the day of the experiment. Haloperidol was prepared in hydroxyethylcellulose, 0.5% in deionized water. Either the vehicle or the test compounds were administered as a single dose (0.3, 1, 3 and 10 mg/kg, 2 mL/kg i.p.). The reference compound haloperidol (1 mg/kg) was administered i.p. (2 mL/kg).
The animals were placed in plexiglass cages under a video camera in a room with low light intensity (maximum 50 lux). At forty five minutes and 3 hours after administration, locomotor activity was determined during 20 minute periods using a video image analyzer (Videotrack, View Point, France). Locomotor activity was recorded in the reference group (haloperidol) at 1 hour after administration. The number and duration of ambulatory movements and duration of inactivity was measured. At the end of the locomotor activity measurement (45 minutes and 3 hours), palpebral closure and arousal were be scored as follows in the plexiglass cage:
The number of occurrences and duration (in seconds) of ambulatory (large) movements and the duration of periods of inactivity (seconds) was determined during two 20 minute periods (45 minutes and 3 hours after administration) using a video image analyzer (Videotrack, ViewPoint, Lyon, France). Image tracking was performed using a video camera placed above the plexiglass cage, recording overall locomotor activity. Images recorded with the video camera were digitalized and displacement of the centre of gravity of the digital image spots was tracked and analyzed using the following method: the speed of displacement of the centre of gravity of the spot was measured and two threshold values were set to define the type of movement: threshold 1 (high speed) and threshold 2 (low speed). When the animal moved and the speed of displacement of the centre of gravity of the spot was above threshold 1, the movement was considered as an ambulatory movement.
The results were expressed as the means±SEMs of the 12 individual values. Statistical analyses were carried out using ANOVA (one way) and Dunnett's t-test and with the non parametric test of Kruskal-Wallis followed by a Mann & Whitney U-test for the sedation cotation. A p value of p<0.05 was taken as indicating significance.

[3] = biological target: T1, Adrenergic α2B Receptor (Homo sapiens, UniProt P18089); assay: Adrenergic α2B receptor radioligand binding; details: 10 μM; 2.5 nM [3H] Rauwolscine
T1 construct: expressed in transfected cells; host or cells: CHO-K1 cells
T1 sequence (P18089 1-450): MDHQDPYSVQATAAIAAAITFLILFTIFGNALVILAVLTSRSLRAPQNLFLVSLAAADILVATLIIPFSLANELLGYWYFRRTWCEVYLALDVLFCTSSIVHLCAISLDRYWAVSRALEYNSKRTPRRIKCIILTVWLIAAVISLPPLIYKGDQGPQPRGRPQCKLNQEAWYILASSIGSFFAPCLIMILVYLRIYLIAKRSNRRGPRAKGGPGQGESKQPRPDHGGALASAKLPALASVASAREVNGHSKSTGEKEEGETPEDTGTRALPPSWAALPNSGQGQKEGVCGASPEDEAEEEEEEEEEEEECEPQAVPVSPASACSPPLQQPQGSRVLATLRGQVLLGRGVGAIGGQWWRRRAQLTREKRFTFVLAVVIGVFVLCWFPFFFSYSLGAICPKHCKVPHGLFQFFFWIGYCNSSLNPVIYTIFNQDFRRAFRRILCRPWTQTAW
Experimental: (§1) (a) Adrenergic α2A Receptor: • Reference: S. Uhlen et al. J. Pharmacol. Exp. Ther., 271:1558-1565 (1994) • Source: Human recombinant insect Sf9 cells • Ligand: 1 nM [^3H] […] J. Pharmacol., 99:803-809, (1990) • Source: Wistar rat cerebral cortex • Ligand: 2 nM [3H]

[4] = tested on: Caco-2 monolayer; details: for Recovery: human, Caco-2, 1 h, 50 μM, pH 7.4
Excerpt: (§2) The assay relies on the ability of Caco-2 cells to differentiate into enterocytes when cultured on a microporous filter for a period of approximately 21 days. During the culture period, the Caco-2 cells undergo spontaneous morphological and biochemical changes, which produce a polarized monolayer with a well-defined brush border on the apical surface, as well as tight cellular junctions. Therefore, these cells may be used as an in vitro model for the analysis of drug permeability.
(§3) Absorption across the Caco-2 monolayer can be measured in two directions: apical-to-basolateral or basolateral-to-apical, by adding the compound to the apical or the basolateral chamber, respectively. At various time-points, samples are collected from the receiver-chamber for analysis for the rate of absorption as measured by the apparent permeability coefficient (Papp) across the monolayer.
(§4) The Papp value reflects a combination of the test article permeability through both transcellular (through cell membranes) and the paracellular (across the tight junctions between the cells) pathways. The relative contribution of these pathways depends upon the pKa, partition coefficient (log D), molecular radius, and charge of the test article at a given pH. Papp values can then be used to rank-order compounds for their permeability through Caco-2 monolayers.
(§5) Absorption was determined at pH 7.4 across cell monolayers in the apical-to-basolateral direction. Caco-2 cells used to estimate Papp values were grown for 26 days on Transwell inserts in 12-well plates. Monolayer integrity was verified before and after the absorption assay by the methods of transepithelial electrical resistance (Ohm-cm^2) and Lucifer Yellow.
(§6) On the day of the assay, the reference standards were diluted in Hank's balanced salt solution (HBSS), pH 7.4 to a final concentration of 50 μM. […] Dihydrotetrabenazine isomer samples were prepared at a concentration of 50 mM in DMSO. Each stock solution was further diluted in HBSS buffer (pH 7.4) to a final working concentration of 50 μM
(§7) The Caco-2 cell suspensions were prepared as follows. […] Once the cell density and viability were determined, Caco-2 cells were diluted in culture medium to a final working concentration of 2.0×10^5 cells/ml. The Caco-2 culture medium contained Dulbecco's Modified Eagle Medium, 10% fetal bovine serum, 100 μM non-essential amino acids, 100 U/ml penicillin and 100 μg/ml streptomycin.
(§8) Costar polycarbonate membranes (0.4 μm pore size) were pre-equilibrated with Caco-2 culture medium for 1 hour in a 37° C. water-jacketed incubator with 5% CO2. The content of the apical chamber was removed and replaced with 500 μl of Caco-2 cell suspension (200 000 cells/ml). Cells were further maintained in culture for 26 days in a 37° C. water-jacketed incubator with 5% CO2.
(§9) Prior to the assay, all monolayers were washed twice with HBSS and their transepithelial electrical resistance (TEER) was measured with a Millicell-ERS meter. TEER values obtained in the absence of cells were subtracted as background signal. Only monolayer with TEER values over 150 Ohm-cm^2 were used for the absorption assay experiment.
(§10) All absorption experiments were conducted in triplicate at pH 7.4. The rate of absorption of each reference standard and dihydrotetrabenazine test article was assessed in the apical-to-basolateral direction. Aliquots (100 μl) of each working solution (reference standards and test articles at 50 μM) were set aside at the beginning of the assay for the determination of the initial concentration (Co).
(§11) Absorption experiments were initiated by replacing the content of the donor chamber with 500 μl of Hanks Balanced Salt Solution containing test articles or reference compounds. Cells were returned to the CO2 incubator for the absorption assay. Samples of 100 μl were collected from the receiver and donor chambers after 1 hour and were used to determine the percentage of recovery.

[5] = biological target: T2, Dopamine D2L Receptor (Homo sapiens, UniProt P14416); assay: Dopamine D2L receptor radioligand binding; details: 10 μM; 0.16 nM [3H] Spiperone
T2 construct: expressed in transfected cells; host or cells: CHO cells
Experimental: as §1

[6] = biological target: T3, Dopamine D3 Receptor (Homo sapiens, UniProt P35462); assay: Dopamine D3 receptor radioligand binding; details: 10 μM; 0.7 nM [3H] Spiperone
T3 construct: expressed in transfected cells; host or cells: CHO cells
Experimental: as §1

[7] = tested on: Imidazoline I2 (Central) Receptor; assay: Imidazoline I2 (central) receptor radioligand binding; design: species or system Wistar rat; details: 10 μM; 2 nM [3H] Idazoxan
Experimental: as §1

[8] = biological target: T4, Dopamine D1 Receptor (Homo sapiens, UniProt P21728); assay: Dopamine D1 receptor radioligand binding; details: 10 μM; 1.4 nM [3H] SCH-23390
T4 construct: expressed in transfected cells; host or cells: CHO cells
Experimental: as §1

[9] = biological target: T5, Sigma σ1 Receptor (Homo sapiens, UniProt Q99720); assay: Sigma σ1 receptor radioligand binding; details: 10 μM; 8 nM [3H] Haloperidol
T5 construct: Source: Human jurkat cells; endogenous in cells; host or cells: Jurkat cells
Experimental: as §1

[10] = biological target: T6, Sigma σ2 Receptor (Rattus norvegicus, UniProt Q5U3Y7); assay: Sigma σ2 receptor radioligand binding; design: species or system Wistar rat; details: 3 nM [3H] Ifenprodil
T6 construct: Source: Wistar rat brain; from tissue; host or cells: Wistar rat brain
T6 sequence (Q5U3Y7 1-176): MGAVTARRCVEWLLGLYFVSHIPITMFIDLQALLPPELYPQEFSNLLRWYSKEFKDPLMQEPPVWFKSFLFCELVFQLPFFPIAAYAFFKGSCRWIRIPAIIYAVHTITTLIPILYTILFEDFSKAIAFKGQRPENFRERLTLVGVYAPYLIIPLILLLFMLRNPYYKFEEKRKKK
Experimental: as §1

[11] = biological target: T7, Dopamine Transporter (DAT) (Homo sapiens, UniProt Q01959); assay: Dopamine transporter (DAT) radioligand binding; details: 10 μM, 0.15 nM [125I] RTI-55
T7 construct: expressed in transfected cells; host or cells: CHO cells
Experimental: as §1

[12] = biological target: T8, Serotonin Transporter (SERT) (Homo sapiens, UniProt P31645); assay: Serotonin transporter (SERT) radioligand binding; details: 10 μM; 0.15 nM [125I] RTI-55
T8 construct: expressed in transfected cells; host or cells: HEK-293 cells
Experimental: as §1

[13] = biological target: T9, Adrenergic α2A Receptor (Homo sapiens, UniProt P08913); assay: Adrenergic α2A receptor radioligand binding; details: 10 μM; 1 nM [3H] MK-912
T9 construct: expressed in transfected cells; host or cells: insect Sf9 cells
T9 sequence (P08913 1-465): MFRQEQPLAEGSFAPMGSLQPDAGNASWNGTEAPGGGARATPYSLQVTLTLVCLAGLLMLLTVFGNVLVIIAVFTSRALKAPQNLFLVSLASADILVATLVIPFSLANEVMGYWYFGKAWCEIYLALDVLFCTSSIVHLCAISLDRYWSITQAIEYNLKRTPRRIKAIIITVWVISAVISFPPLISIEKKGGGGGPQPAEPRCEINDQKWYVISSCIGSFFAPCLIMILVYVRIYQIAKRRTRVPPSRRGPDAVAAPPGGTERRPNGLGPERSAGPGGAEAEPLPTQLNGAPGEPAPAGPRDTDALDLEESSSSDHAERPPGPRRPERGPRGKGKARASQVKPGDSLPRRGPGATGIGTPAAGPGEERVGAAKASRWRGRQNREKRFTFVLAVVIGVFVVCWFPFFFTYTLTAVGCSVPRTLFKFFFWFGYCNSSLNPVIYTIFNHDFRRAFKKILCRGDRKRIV
Experimental: as §1

[14] = in vitro; details: human, Caco-2, pH 7.4
Excerpt: as §2, §3, §4, §5, §6, §7, §8, §9, §10, §11

[15] = 0.3 mg/kg i.p., 45 minutes after administration
[16] = 0.3 mg/kg i.p., 3 hours after administration
[17] = 1 mg/kg i.p., 45 minutes after administration
[18] = 1 mg/kg i.p., 3 hours after administration
[19] = 3 mg/kg i.p., 45 minutes after administration
[20] = 3 mg/kg i.p., 3 hours after administration
[21] = 10 mg/kg i.p., 45 minutes after administration
[22] = 10 mg/kg i.p., 3 hours after administration

T4 sequence (P21728 whole entry): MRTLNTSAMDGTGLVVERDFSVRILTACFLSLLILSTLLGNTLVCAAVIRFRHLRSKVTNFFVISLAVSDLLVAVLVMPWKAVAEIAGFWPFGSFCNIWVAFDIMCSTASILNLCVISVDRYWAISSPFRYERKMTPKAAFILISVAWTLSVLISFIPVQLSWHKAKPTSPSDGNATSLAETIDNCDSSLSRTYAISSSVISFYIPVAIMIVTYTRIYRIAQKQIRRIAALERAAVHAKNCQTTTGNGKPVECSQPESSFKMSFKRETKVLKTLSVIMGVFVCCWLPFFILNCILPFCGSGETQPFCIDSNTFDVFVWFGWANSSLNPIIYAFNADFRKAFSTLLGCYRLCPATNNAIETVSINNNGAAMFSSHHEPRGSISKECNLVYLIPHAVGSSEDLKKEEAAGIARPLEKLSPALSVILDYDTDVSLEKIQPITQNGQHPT
T7 sequence (Q01959 whole entry): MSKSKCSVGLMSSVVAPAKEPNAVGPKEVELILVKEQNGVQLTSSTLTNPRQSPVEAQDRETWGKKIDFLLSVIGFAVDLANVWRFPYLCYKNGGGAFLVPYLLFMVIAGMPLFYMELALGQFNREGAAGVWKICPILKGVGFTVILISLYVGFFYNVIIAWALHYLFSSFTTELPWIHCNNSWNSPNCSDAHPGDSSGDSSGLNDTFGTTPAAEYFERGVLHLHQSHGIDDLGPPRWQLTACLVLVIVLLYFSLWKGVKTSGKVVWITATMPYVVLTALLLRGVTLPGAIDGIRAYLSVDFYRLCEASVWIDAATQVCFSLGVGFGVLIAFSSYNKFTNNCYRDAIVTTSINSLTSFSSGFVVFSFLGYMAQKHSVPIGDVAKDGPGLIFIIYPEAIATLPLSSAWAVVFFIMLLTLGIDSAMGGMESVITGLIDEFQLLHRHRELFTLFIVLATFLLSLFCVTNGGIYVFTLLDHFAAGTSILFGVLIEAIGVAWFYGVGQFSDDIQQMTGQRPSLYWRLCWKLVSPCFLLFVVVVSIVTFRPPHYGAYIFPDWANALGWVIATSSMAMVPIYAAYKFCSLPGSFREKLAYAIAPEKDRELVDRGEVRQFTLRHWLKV
T3 sequence (P35462 whole entry): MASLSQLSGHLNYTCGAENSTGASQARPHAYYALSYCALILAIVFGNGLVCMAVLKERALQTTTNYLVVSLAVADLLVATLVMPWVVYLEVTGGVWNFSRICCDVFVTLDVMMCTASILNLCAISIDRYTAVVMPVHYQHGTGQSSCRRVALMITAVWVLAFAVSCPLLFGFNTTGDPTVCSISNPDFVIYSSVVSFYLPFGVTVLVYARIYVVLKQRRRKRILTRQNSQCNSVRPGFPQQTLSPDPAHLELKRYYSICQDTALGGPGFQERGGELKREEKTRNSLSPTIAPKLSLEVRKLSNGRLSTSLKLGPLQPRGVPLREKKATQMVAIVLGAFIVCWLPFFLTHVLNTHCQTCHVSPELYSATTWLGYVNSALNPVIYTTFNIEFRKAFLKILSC
T8 sequence (P31645 whole entry): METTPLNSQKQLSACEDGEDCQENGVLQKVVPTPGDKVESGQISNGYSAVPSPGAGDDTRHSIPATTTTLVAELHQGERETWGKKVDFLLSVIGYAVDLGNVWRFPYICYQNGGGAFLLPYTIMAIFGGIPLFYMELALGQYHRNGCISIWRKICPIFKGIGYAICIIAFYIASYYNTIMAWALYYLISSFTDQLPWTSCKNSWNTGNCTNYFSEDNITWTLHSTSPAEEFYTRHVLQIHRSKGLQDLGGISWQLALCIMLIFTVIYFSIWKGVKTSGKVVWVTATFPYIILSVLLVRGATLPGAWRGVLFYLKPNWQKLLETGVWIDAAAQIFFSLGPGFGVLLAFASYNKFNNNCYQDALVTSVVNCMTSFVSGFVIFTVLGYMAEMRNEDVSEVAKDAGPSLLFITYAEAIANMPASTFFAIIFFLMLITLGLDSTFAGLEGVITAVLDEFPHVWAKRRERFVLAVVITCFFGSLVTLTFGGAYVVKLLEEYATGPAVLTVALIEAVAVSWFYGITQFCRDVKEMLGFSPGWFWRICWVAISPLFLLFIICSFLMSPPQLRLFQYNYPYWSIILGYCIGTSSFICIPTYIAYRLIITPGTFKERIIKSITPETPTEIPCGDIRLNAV
T2 sequence (P14416 whole entry): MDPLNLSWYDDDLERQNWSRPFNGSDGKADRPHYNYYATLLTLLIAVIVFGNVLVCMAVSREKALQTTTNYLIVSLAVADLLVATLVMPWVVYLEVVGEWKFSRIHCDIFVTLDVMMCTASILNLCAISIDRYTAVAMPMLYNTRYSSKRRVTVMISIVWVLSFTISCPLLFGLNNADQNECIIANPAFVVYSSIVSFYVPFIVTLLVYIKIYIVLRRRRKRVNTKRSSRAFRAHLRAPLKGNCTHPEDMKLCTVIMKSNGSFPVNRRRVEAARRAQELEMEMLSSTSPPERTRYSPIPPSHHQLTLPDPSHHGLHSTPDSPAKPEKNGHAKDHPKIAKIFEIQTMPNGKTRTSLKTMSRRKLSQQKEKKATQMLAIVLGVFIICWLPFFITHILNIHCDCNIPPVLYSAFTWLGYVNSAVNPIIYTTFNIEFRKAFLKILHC
T5 sequence (Q99720 whole entry): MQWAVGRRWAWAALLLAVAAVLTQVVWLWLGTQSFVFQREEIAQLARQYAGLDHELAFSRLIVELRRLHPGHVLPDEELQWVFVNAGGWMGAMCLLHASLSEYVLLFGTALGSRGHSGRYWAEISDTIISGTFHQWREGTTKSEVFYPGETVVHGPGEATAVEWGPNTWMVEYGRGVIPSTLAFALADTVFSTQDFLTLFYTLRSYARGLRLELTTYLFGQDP
Chain of VMAT2 (Q05940 whole entry): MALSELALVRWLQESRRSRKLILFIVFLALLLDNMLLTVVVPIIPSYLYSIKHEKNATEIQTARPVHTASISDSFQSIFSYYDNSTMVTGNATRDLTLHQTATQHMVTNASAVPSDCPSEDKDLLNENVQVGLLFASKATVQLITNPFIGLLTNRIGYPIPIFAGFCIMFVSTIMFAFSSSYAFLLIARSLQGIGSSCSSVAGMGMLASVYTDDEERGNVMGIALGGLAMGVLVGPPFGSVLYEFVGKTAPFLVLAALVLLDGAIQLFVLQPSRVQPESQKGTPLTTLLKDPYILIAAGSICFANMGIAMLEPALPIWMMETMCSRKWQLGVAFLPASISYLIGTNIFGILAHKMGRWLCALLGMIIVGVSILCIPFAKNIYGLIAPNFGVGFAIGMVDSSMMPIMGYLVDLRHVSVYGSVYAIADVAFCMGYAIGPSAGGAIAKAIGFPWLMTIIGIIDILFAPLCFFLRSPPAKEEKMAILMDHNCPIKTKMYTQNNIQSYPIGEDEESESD

SMILES: COc1cc2c(cc1OC)C1CC(=O)C(CC(C)C)CN1CC2 (racemic) [Tetrabenazine, 1,3,4,6,7,11b-hexahydro-9,10-dimethoxy-3-(2-methylpropyl)-2H-benzo(a)quinolizin-2-one]
- affinity for VMAT2 in comparison to VMAT1 [1]: ≥ 200 fold
- Inactivity Duration [2, 15]: 390.4 ± 37.4 s
- Large movements Duration [2, 15]: 66.8 ± 10.7 s
- Large movements Occurrence [2, 15]: 253 ± 32
- Inactivity Duration [2, 16]: 545.9 ± 37.1 s
- Large movements Duration [2, 16]: 24.3 ± 4.2 s
- Large movements Occurrence [2, 16]: 96 ± 14
- Inactivity Duration [2, 17]: 456.5 ± 50.5 s
- Large movements Duration [2, 17]: 46.5 ± 8.6 s
- Large movements Occurrence [2, 17]: 189 ± 32
- Inactivity Duration [2, 18]: 556.9 ± 31.1 s
- Large movements Duration [2, 18]: 21.5 ± 4.0 s
- Large movements Occurrence [2, 18]: 90 ± 16
- Inactivity Duration [2, 19]: 697.8 ± 39.7 s
- Large movements Duration [2, 19]: 8.7 ± 5.9 s
- Large movements Occurrence [2, 19]: 38 ± 25
- Inactivity Duration [2, 20]: 729.9 ± 26.8 s
- Large movements Duration [2, 20]: 1.7 ± 0.9 s
- Large movements Occurrence [2, 20]: 9 ± 4
- Inactivity Duration [2, 21]: 723.1 ± 46.5 s
- Large movements Duration [2, 21]: 0.2 ± 0.2 s
- Large movements Occurrence [2, 21]: 1 ± 1
- Inactivity Duration [2, 22]: 762.1 ± 40.7 s
- Large movements Duration [2, 22]: 0.6 ± 0.3 s
- Large movements Occurrence [2, 22]: 3 ± 1
- sedative effect (in words) ([2]; 0.3-10 mg/kg i.p., 45 minutes and 3 hours after administration): dose-dependent sedative effect; also recorded: dose related sedative effect

SMILES: COc1cc2c(cc1OC)[C@H]1C[C@H](O)[C@@H](CC(C)C)CN1CC2 (single isomer, unassigned) [Isomer A, 3,11b-cis-dihydrotetrabenazine]
- Percentage Inhibition of Specific Binding, α2B Receptor [3]: 44%
- permeability in the Caco-2 model (in words) [4]: high permeability
- Recovery [4]: 106.8 ± 7.9%
- Percentage Inhibition of Specific Binding, D2L Receptor [5]: 87%
- Percentage Inhibition of Specific Binding, D3 Receptor [6]: 69%
- Percentage Inhibition of Specific Binding, I2 Receptor [7]: 74%
- Percentage Inhibition of Specific Binding, D1 Receptor [8]: 78%
- Percentage Inhibition of Specific Binding, σ1 Receptor [9]: 48%
- inhibition at 10 µM ([10]; read-out: Percentage Inhibition of Specific Binding, σ2 Receptor): 64%
- inhibition at 10 µM ([11]; read-out: Percentage Inhibition of Specific Binding, DAT): 3%
- Percentage Inhibition of Specific Binding, SERT [12]: 19%
- Percentage Inhibition of Specific Binding, α2A Receptor [13]: 86%

SMILES: COc1cc2c(cc1OC)[C@H]1C[C@@H](O)[C@@H](CC(C)C)CN1CC2 (single isomer, unassigned) [Isomer D, 3,11b-cis-dihydrotetrabenazine]
- Percentage Inhibition of Specific Binding, α2B Receptor [3]: 50%
- permeability in the Caco-2 model (in words) [4]: high permeability
- Recovery [4]: 106.5 ± 23.8%
- Percentage Inhibition of Specific Binding, D2L Receptor [5]: 58%
- Percentage Inhibition of Specific Binding, D3 Receptor [6]: 63%
- Percentage Inhibition of Specific Binding, I2 Receptor [7]: 55%
- Percentage Inhibition of Specific Binding, D1 Receptor [8]: 38%
- Percentage Inhibition of Specific Binding, σ1 Receptor [9]: 82%
- Percentage Inhibition of Specific Binding, σ2 Receptor ([10]; 10 μM): 69%
- Percentage Inhibition of Specific Binding, DAT [11]: 2%
- Percentage Inhibition of Specific Binding, SERT [12]: 8%
- Percentage Inhibition of Specific Binding, α2A Receptor [13]: 87%

SMILES: O=C(CCCN1CCC(O)(c2ccc(Cl)cc2)CC1)c1ccc(F)cc1 [Haloperidol, reference compound]
- Inactivity Duration [2, 17]: 637.2 ± 60.1 s
- Large movements Duration [2, 17]: 14.8 ± 8.5 s
- Large movements Occurrence [2, 17]: 58 ± 33
- Inactivity Duration [2, 18]: 723.6 ± 50.2 s
- Large movements Duration [2, 18]: 2.2 ± 2.0 s
- Large movements Occurrence [2, 18]: 9 ± 8

SMILES: OC[C@@H](O)[C@@H](O)[C@H](O)[C@H](O)CO [Mannitol]
- Papp A→B at 1 h, 50 μM [14]: 1.18 ± 0.14 ×10⁻⁶ cm/s
- recovery at 1 h, 50 μM [14]: 97.1 ± 0.3%

SMILES: O=C(O)c1ccccc1O [Salicylic Acid]
- Papp A→B at 1 h, 50 μM [14]: 8.91 ± 8.14 ×10⁻⁶ cm/s
- recovery at 1 h, 50 μM [14]: 91.5 ± 11.4%

SMILES: C[C@]12CC[C@H]3[C@@H](CCC4=CC(=O)CC[C@@]43C)[C@@H]1CC[C@@H]2O [Testosterone]
- recovery at 1 h, 50 μM [14]: 105 ± 10.6%
